“And” between values parts separate entries of the source, which are not always exact repeats. Equal values may be shown once.
Tested on: 521955-158-R6-J3-PDC complex spheroid growth, % test/control
Assay: Anticancer human tumor 521955-158-R6-J3-PDC patient-derived pancreatic carcinoma cell line growth inhibition [Asc]
Conditions: for viability, T/C: stronger effect = lower value
Summary of the method: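 Complex spheroids combining tumor cells with HUVEC endothelial cells and human MSCs, at 37 degrees C, 5% CO2; agents tested alone or combined, half-log dilutions from at or near clinical Cmax, or 10 microM if Cmax unknown.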

[1] = curve of first compound, second compound 0.00316 µM
[2] = curve of first compound, second compound 0.01 µM
[3] = curve of first compound, second compound 0.0316 µM
[4] = curve of first compound, second compound 0.1 µM
[5] = curve of first compound, second compound 0.316 µM
[6] = curve of first compound, second compound 1 µM
[7] = second compound 0.00316 µM, first compound 0.0316 µM
[8] = second compound 0.00316 µM, first compound 0.1 µM
[9] = second compound 0.01 µM, first compound 0.0316 µM
[10] = second compound 0.01 µM, first compound 0.1 µM
[11] = second compound 0.0316 µM, first compound 0.0316 µM
[12] = second compound 0.0316 µM, first compound 0.1 µM
[13] = second compound 0.1 µM, first compound 0.0316 µM
[14] = second compound 0.1 µM, first compound 0.1 µM
[15] = second compound 0.316 µM, first compound 0.0316 µM
[16] = second compound 0.316 µM, first compound 0.1 µM
[17] = second compound 1 µM, first compound 0.0316 µM
[18] = second compound 1 µM, first compound 0.1 µM
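Further: spheroids exposed to compounds for 7 days.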
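Wherever viability, T/C is given: 100% = DMSO vehicle control wells.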

C=C(F)C(=O)N1CCN(c2nc(OCC3CCCN3C)nc3c2CCN(c2cccc4cccc(Cl)c24)C3)CC1CC#N (stereo unspecified) + CNC(C)C(=O)NC1CN(S(=O)(=O)c2cccc(S(=O)(=O)N3CCC4CCC(C(=O)NC(c5ccccc5)c5ccccc5)N4C(=O)C(NC(=O)C(C)NC)C3)c2)CCC2CCC(C(=O)NC(c3ccccc3)c3ccccc3)N2C1=O showed an IC50 [1] of 4.74 µM, an IC50 [2] of 4.13 µM and an IC50 [3] of 3.96 µM. For the same compound, the IC50 [4] was 4.13 µM, the IC50 [5] was 3.84 µM and the IC50 [6] was 3.46 µM. For the same compound, the viability, T/C [7] was 92.6%, the viability, T/C [8] was 88.5% and the viability, T/C (second compound 0.00316 µM, first compound 0.316 µM) was 81.2%. It also gave a viability, T/C (second compound 0.00316 µM, first compound 1 µM) of 77.6%, a viability, T/C (second compound 0.00316 µM, first compound 3.16 µM) of 76.8% and a viability, T/C (second compound 0.00316 µM, first compound 10 µM) of 0.24%. For the same compound, the viability, T/C [9] was 87.4%, the viability, T/C [10] was 83% and the viability, T/C (second compound 0.01 µM, first compound 0.316 µM) was 80.5%. For the same compound, the viability, T/C (second compound 0.01 µM, first compound 1 µM) was 66.9%, the viability, T/C (second compound 0.01 µM, first compound 3.16 µM) was 69.4% and the viability, T/C (second compound 0.01 µM, first compound 10 µM) was 0.28%. For the same compound, the viability, T/C [11] was 95.6%, the viability, T/C [12] was 98.2% and the viability, T/C (second compound 0.0316 µM, first compound 0.316 µM) was 73.7%. The viability, T/C (second compound 0.0316 µM, first compound 1 µM) was 71.2%, the viability, T/C (second compound 0.0316 µM, first compound 3.16 µM) was 70.2% and the viability, T/C (second compound 0.0316 µM, first compound 10 µM) was 0.21%. For the same compound, the viability, T/C [13] was 84.9%, the viability, T/C [14] was 74.2% and the viability, T/C (second compound 0.1 µM, first compound 0.316 µM) was 76.4%. The viability, T/C (second compound 0.1 µM, first compound 1 µM) was 69.7%, the viability, T/C (second compound 0.1 µM, first compound 3.16 µM) was 66.7% and the viability, T/C (second compound 0.1 µM, first compound 10 µM) was 0.28%. It also gave a viability, T/C [15] of 79.6%, a viability, T/C [16] of 80.6% and a viability, T/C (second compound 0.316 µM, first compound 0.316 µM) of 77.1%. The viability, T/C (second compound 0.316 µM, first compound 1 µM) was 68.8%, the viability, T/C (second compound 0.316 µM, first compound 3.16 µM) was 62.5% and the viability, T/C (second compound 0.316 µM, first compound 10 µM) was 0.26%. For the same compound, the viability, T/C [17] was 70.8%, the viability, T/C [18] was 77.2% and the viability, T/C (second compound 1 µM, first compound 0.316 µM) was 80.2%. The viability, T/C (second compound 1 µM, first compound 1 µM) was 71.5%, the viability, T/C (second compound 1 µM, first compound 3.16 µM) was 54.4% and the viability, T/C (second compound 1 µM, first compound 10 µM) was 0.32%.
For C=CC(=O)N1CCN(c2nc(=O)n(-c3c(C)ccnc3C(C)C)c3nc(-c4c(O)cccc4F)c(F)cc23)C(C)C1 (stereo unspecified), the viability, T/C (compound 0.0316 µM) was 104% and 94.7% and 96.5%, the viability, T/C (compound 0.1 µM) was 105% and 107% and 89.4% and the viability, T/C (compound 0.316 µM) was 95.1% and 92% and 95.3%. The viability, T/C (compound 1 µM) was 111% and 100% and 122%, the viability, T/C (compound 3.16 µM) was 112% and 125% and 121% and the viability, T/C (compound 10 µM) was 93.7% and 124% and 118%. It also gave an IC50 (curve of compound) of over 10 µM.
For Cn1ncnc1[C@H]1c2n[nH]c(=O)c3cc(F)cc(c23)N[C@@H]1c1ccc(F)cc1 + CNC(C)C(=O)NC1CN(S(=O)(=O)c2cccc(S(=O)(=O)N3CCC4CCC(C(=O)NC(c5ccccc5)c5ccccc5)N4C(=O)C(NC(=O)C(C)NC)C3)c2)CCC2CCC(C(=O)NC(c3ccccc3)c3ccccc3)N2C1=O, the IC50 [1] was over 0.1 µM, the IC50 [2] was over 0.1 µM and the IC50 [3] was over 0.1 µM. It also gave an IC50 [4] of over 0.1 µM, an IC50 [5] of over 0.1 µM and an IC50 [6] of over 0.1 µM. The viability, T/C (second compound 0.00316 µM, first compound 0.000316 µM) was 188%, the viability, T/C (second compound 0.00316 µM, first compound 0.001 µM) was 151% and the viability, T/C (second compound 0.00316 µM, first compound 0.00316 µM) was 151%. For the same compound, the viability, T/C (second compound 0.00316 µM, first compound 0.01 µM) was 159%, the viability, T/C [7] was 163% and the viability, T/C [8] was 140%. The viability, T/C (second compound 0.01 µM, first compound 0.000316 µM) was 154%, the viability, T/C (second compound 0.01 µM, first compound 0.001 µM) was 171% and the viability, T/C (second compound 0.01 µM, first compound 0.00316 µM) was 142%. It also gave a viability, T/C (second compound 0.01 µM, first compound 0.01 µM) of 146%, a viability, T/C [9] of 153% and a viability, T/C [10] of 161%. It also gave a viability, T/C (second compound 0.0316 µM, first compound 0.000316 µM) of 96.4%, a viability, T/C (second compound 0.0316 µM, first compound 0.001 µM) of 79.9% and a viability, T/C (second compound 0.0316 µM, first compound 0.00316 µM) of 93.6%. It also gave a viability, T/C (second compound 0.0316 µM, first compound 0.01 µM) of 74.6%, a viability, T/C [11] of 76.9% and a viability, T/C [12] of 92.1%. It also gave a viability, T/C (second compound 0.1 µM, first compound 0.000316 µM) of 93.2%, a viability, T/C (second compound 0.1 µM, first compound 0.001 µM) of 79.2% and a viability, T/C (second compound 0.1 µM, first compound 0.00316 µM) of 85.6%. The viability, T/C (second compound 0.1 µM, first compound 0.01 µM) was 83%, the viability, T/C [13] was 87.4% and the viability, T/C [14] was 78.2%. It also gave a viability, T/C (second compound 0.316 µM, first compound 0.000316 µM) of 84.8%, a viability, T/C (second compound 0.316 µM, first compound 0.001 µM) of 72.6% and a viability, T/C (second compound 0.316 µM, first compound 0.00316 µM) of 83.3%. It also gave a viability, T/C (second compound 0.316 µM, first compound 0.01 µM) of 87.1%, a viability, T/C [15] of 89.3% and a viability, T/C [16] of 84.1%. It also gave a viability, T/C (second compound 1 µM, first compound 0.000316 µM) of 73.3%, a viability, T/C (second compound 1 µM, first compound 0.001 µM) of 74.9% and a viability, T/C (second compound 1 µM, first compound 0.00316 µM) of 83.9%. For the same compound, the viability, T/C (second compound 1 µM, first compound 0.01 µM) was 74.7%, the viability, T/C [17] was 87.8% and the viability, T/C [18] was 83.2%.

From PubChem BioAssay AID1963451 (Molecular Pharmacology Branch, DTP, NCI, 2024)
